Measured values: the NIST ThermoML archive (doi:10.1021/je049540s)
Numbers after ± are expanded uncertainties.

Tests used:
[1] = 308.15 K; 101.3 kPa; Liquid
[2] = refractive index (Na D-line) (dimensionless); settings: 101.33 kPa, Liquid, Standard Abbe refractometry
[3] = activity coefficient (dimensionless); of the first substance listed, at infinite dilution; xn = mol fraction of the nth substance listed; settings: 101.3 kPa, Liquid, Differential ebulliometry, x1 = 0
[4] = xn = mol fraction of the nth substance listed; settings: 308.15 K, 101.3 kPa, Liquid

## Cc1ccccc1O [2-methylphenol]
[1]
  mass density: 1032.73 ± 0.49 kg/m3
[2]; 308.15 K
  refractive index: 1.5386 ± 0.0007

## Cc1cccc(O)c1 [3-methylphenol] + CCCCCCCCCCC
[3]; 393.15 K
  activity coefficient: 6.25 ± 0.88
[3]; 413.15 K
  activity coefficient: 4.9 ± 0.69
[3]; 433.15 K
  activity coefficient: 3.93 ± 0.55
[4]; x1 = 0.1287
  mass density: 748.52 ± 0.34 kg/m3
[4]; x1 = 0.1853
  mass density: 758.11 ± 0.33 kg/m3
[4]; x1 = 0.3395
  mass density: 787.84 ± 0.31 kg/m3
[4]; x1 = 0.389
  mass density: 798.63 ± 0.3 kg/m3
[4]; x1 = 0.5024
  mass density: 826.11 ± 0.29 kg/m3
[4]; x1 = 0.6023
  mass density: 854.21 ± 0.26 kg/m3
[4]; x1 = 0.6949
  mass density: 884.19 ± 0.23 kg/m3
[4]; x1 = 0.8
  mass density: 923.73 ± 0.19 kg/m3
[4]; x1 = 0.9
  mass density: 968.61 ± 0.14 kg/m3
[4]; x1 = 1
  mass density: 1022.02 ± 0.13 kg/m3

## CCCCCCCCC [nonane] + Cc1cccc(O)c1
[4]; x2 = 0
  mass density: 707.41 ± 0.38 kg/m3

## CCCCCCCCC [nonane] + Cc1ccccc1O
[4]; x2 = 0
  mass density: 707.41 ± 0.38 kg/m3

## Cc1cccc(O)c1 [3-methylphenol]
[1]
  mass density: 1022.02 ± 0.13 kg/m3
[2]; 293.15 K
  refractive index: 1.5401 ± 0.0007

## CCCCCCCCCCCC [dodecane]
[1]
  mass density: 738.63 ± 0.36 kg/m3
[2]; 293.15 K
  refractive index: 1.421 ± 0.0007

## CCCCCCCCCCC [undecane]
[1]
  mass density: 729.13 ± 0.36 kg/m3
[2]; 293.15 K
  refractive index: 1.4164 ± 0.0007

## Cc1ccccc1O [2-methylphenol] + CCCCCCCCCCC
[3]; 393.15 K
  activity coefficient: 4.47 ± 0.63
[3]; 413.15 K
  activity coefficient: 3.77 ± 0.53
[3]; 433.15 K
  activity coefficient: 2.85 ± 0.4
[4]; x1 = 1
  mass density: 1032.73 ± 0.49 kg/m3

## CCCCCCCCCCC [undecane] + Cc1cccc(O)c1
[4]; x2 = 0
  mass density: 729.13 ± 0.36 kg/m3

## Cc1cccc(O)c1 [3-methylphenol] + CCCCCCCCCC
[3]; 373.15 K
  activity coefficient: 7.79 ± 1.1
[3]; 403.15 K
  activity coefficient: 5.37 ± 0.75
[3]; 433.15 K
  activity coefficient: 4.26 ± 0.6

## CCCCCCCCCCC [undecane] + Cc1ccccc1O
[4]; x2 = 0
  mass density: 729.13 ± 0.36 kg/m3
[4]; x2 = 0.0367
  mass density: 734.21 ± 0.35 kg/m3
[4]; x2 = 0.0684
  mass density: 738.92 ± 0.35 kg/m3
[4]; x2 = 0.0746
  mass density: 739.92 ± 0.35 kg/m3
[4]; x2 = 0.1306
  mass density: 748.8 ± 0.35 kg/m3
[4]; x2 = 0.2094
  mass density: 762.7 ± 0.34 kg/m3
[4]; x2 = 0.2809
  mass density: 776.41 ± 0.34 kg/m3
[4]; x2 = 0.3636
  mass density: 794.01 ± 0.34 kg/m3
[4]; x2 = 0.4749
  mass density: 820.79 ± 0.35 kg/m3
[4]; x2 = 0.5311
  mass density: 835.93 ± 0.36 kg/m3
[4]; x2 = 0.5989
  mass density: 855.95 ± 0.36 kg/m3
[4]; x2 = 0.6593
  mass density: 875.61 ± 0.37 kg/m3
[4]; x2 = 0.7261
  mass density: 899.41 ± 0.38 kg/m3
[4]; x2 = 0.8065
  mass density: 931.92 ± 0.39 kg/m3
[4]; x2 = 0.8662
  mass density: 959.18 ± 0.41 kg/m3
[4]; x2 = 0.9476
  mass density: 1001.43 ± 0.45 kg/m3

## Cc1ccccc1O [2-methylphenol] + CCCCCCCCC
[3]; 373.15 K
  activity coefficient: 5.84 ± 0.82
[3]; 393.15 K
  activity coefficient: 4.58 ± 0.64
[3]; 413.15 K
  activity coefficient: 3.8 ± 0.5
[4]; x1 = 0.0661
  mass density: 719.58 ± 0.37 kg/m3
[4]; x1 = 0.0684
  mass density: 720.02 ± 0.37 kg/m3
[4]; x1 = 0.1489
  mass density: 736.5 ± 0.36 kg/m3
[4]; x1 = 0.2085
  mass density: 749.6 ± 0.35 kg/m3
[4]; x1 = 0.2703
  mass density: 764.08 ± 0.35 kg/m3
[4]; x1 = 0.3994
  mass density: 797.32 ± 0.35 kg/m3
[4]; x1 = 0.4008
  mass density: 797.69 ± 0.35 kg/m3
[4]; x1 = 0.4688
  mass density: 817.04 ± 0.36 kg/m3
[4]; x1 = 0.5237
  mass density: 833.66 ± 0.37 kg/m3
[4]; x1 = 0.5941
  mass density: 856.51 ± 0.36 kg/m3
[4]; x1 = 0.6631
  mass density: 880.76 ± 0.37 kg/m3
[4]; x1 = 0.7323
  mass density: 906.98 ± 0.38 kg/m3
[4]; x1 = 0.8106
  mass density: 939.53 ± 0.39 kg/m3
[4]; x1 = 0.8674
  mass density: 965.12 ± 0.41 kg/m3
[4]; x1 = 0.9285
  mass density: 994.76 ± 0.44 kg/m3
[4]; x1 = 1
  mass density: 1032.73 ± 0.49 kg/m3

## Cc1ccccc1O [2-methylphenol] + CCCCCCCCCC
[3]; 393.15 K
  activity coefficient: 4.15 ± 0.58
[3]; 413.15 K
  activity coefficient: 3.49 ± 0.49
[3]; 433.15 K
  activity coefficient: 3.04 ± 0.43
[4]; x1 = 0.0637
  mass density: 730.49 ± 0.42 kg/m3
[4]; x1 = 0.0908
  mass density: 735.2 ± 0.42 kg/m3
[4]; x1 = 0.162
  mass density: 748.33 ± 0.42 kg/m3
[4]; x1 = 0.2086
  mass density: 757.57 ± 0.42 kg/m3
[4]; x1 = 0.272
  mass density: 770.9 ± 0.41 kg/m3
[4]; x1 = 0.3186
  mass density: 781.32 ± 0.42 kg/m3
[4]; x1 = 0.4014
  mass density: 801.21 ± 0.42 kg/m3
[4]; x1 = 0.4707
  mass density: 819.47 ± 0.43 kg/m3
[4]; x1 = 0.529
  mass density: 836.06 ± 0.43 kg/m3
[4]; x1 = 0.6014
  mass density: 858.4 ± 0.43 kg/m3
[4]; x1 = 0.6596
  mass density: 878.02 ± 0.43 kg/m3
[4]; x1 = 0.7379
  mass density: 906.95 ± 0.43 kg/m3
[4]; x1 = 0.7876
  mass density: 927.04 ± 0.43 kg/m3
[4]; x1 = 0.8714
  mass density: 964.58 ± 0.44 kg/m3
[4]; x1 = 0.9348
  mass density: 996.28 ± 0.45 kg/m3
[4]; x1 = 0.9617
  mass density: 1010.78 ± 0.47 kg/m3
[4]; x1 = 1
  mass density: 1032.73 ± 0.49 kg/m3

## CCCCCCCCCC [decane] + Cc1ccccc1O
[4]; x2 = 0
  mass density: 720.24 ± 0.42 kg/m3

## Cc1cccc(O)c1 [3-methylphenol] + CCCCCCCCCCCC
[4]; x1 = 0.1325
  mass density: 756.67 ± 0.34 kg/m3
[4]; x1 = 0.2055
  mass density: 767.97 ± 0.33 kg/m3
[4]; x1 = 0.3009
  mass density: 784.51 ± 0.32 kg/m3
[4]; x1 = 0.4009
  mass density: 804.35 ± 0.31 kg/m3
[4]; x1 = 0.6976
  mass density: 883.71 ± 0.23 kg/m3
[4]; x1 = 0.7987
  mass density: 921.29 ± 0.2 kg/m3
[4]; x1 = 0.895
  mass density: 963.9 ± 0.15 kg/m3
[4]; x1 = 1
  mass density: 1022.02 ± 0.13 kg/m3

## CCCCCCCCC [nonane]
[1]
  mass density: 707.41 ± 0.38 kg/m3
[2]; 293.15 K
  refractive index: 1.4058 ± 0.0007

## Cc1cccc(O)c1 [3-methylphenol] + CCCCCCCCC
[3]; 373.15 K
  activity coefficient: 9.21 ± 1.3
[3]; 393.15 K
  activity coefficient: 7.06 ± 0.99
[3]; 413.15 K
  activity coefficient: 5.96 ± 0.83
[4]; x1 = 0.1021
  mass density: 726.54 ± 0.36 kg/m3
[4]; x1 = 0.1998
  mass density: 747.24 ± 0.34 kg/m3
[4]; x1 = 0.302
  mass density: 770.94 ± 0.33 kg/m3
[4]; x1 = 0.4021
  mass density: 796.76 ± 0.31 kg/m3
[4]; x1 = 0.5
  mass density: 825 ± 0.31 kg/m3
[4]; x1 = 0.7
  mass density: 892.22 ± 0.23 kg/m3
[4]; x1 = 0.9
  mass density: 974.43 ± 0.14 kg/m3
[4]; x1 = 1
  mass density: 1022.02 ± 0.13 kg/m3

## CCCCCCCCCCCC [dodecane] + Cc1cccc(O)c1
[4]; x2 = 0
  mass density: 738.63 ± 0.36 kg/m3

## CCCCCCCCCC [decane]
[1]
  mass density: 720.24 ± 0.42 kg/m3
[2]; 308.15 K
  refractive index: 1.4055 ± 0.0007
